{
  "source": "patent US12351556B2",
  "about": "“Pyridin-2(1H)one derivatives, their preparation and their use for the treatment of pain” (INSTITUT NATIONAL DE LA SANTE ET DE LA RECHERCHE MEDICALE …, priority 2019, dated 2025)",
  "assay_in_all_cases": "ICKP protein kinase panel screening",
  "key": {"JNK1": {"biological_target": "JNK1 (Homo sapiens (Human), UniProt P45983)", "sequence (P45983 whole entry)": "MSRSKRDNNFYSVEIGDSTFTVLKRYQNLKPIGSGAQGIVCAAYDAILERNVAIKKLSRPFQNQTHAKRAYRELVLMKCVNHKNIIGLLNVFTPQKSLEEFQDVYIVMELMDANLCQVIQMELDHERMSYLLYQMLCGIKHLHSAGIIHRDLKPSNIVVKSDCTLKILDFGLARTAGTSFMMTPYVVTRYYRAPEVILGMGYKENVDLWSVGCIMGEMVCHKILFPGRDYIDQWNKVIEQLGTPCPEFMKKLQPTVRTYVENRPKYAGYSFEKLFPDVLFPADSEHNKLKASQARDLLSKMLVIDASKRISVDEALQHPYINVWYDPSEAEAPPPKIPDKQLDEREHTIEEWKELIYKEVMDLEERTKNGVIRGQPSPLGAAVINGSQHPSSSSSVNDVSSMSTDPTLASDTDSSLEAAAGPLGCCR", "format": "biochemical", "settings": "duplicate assays, read-out: mean % residual activity", "description": "(§1) FIG. 3 illustrates the human kinome. Compound 69 was evaluated at the International Center For Kinase Profiling (ICKP, Dundee, Scotland) toward a panel of 50 protein kinases that provide a representative sampling of the human kinome. The results were expressed as the mean percentage of residual activity at 10 μM concentration (duplicate assays). Small disks: ≥65%, larger disk: 19%. The black square indicates the kinome region containing protein kinases evaluated in a second screening (FIG. 4, Table 4). The tree was generated using the Kinome Render software, and the illustration reproduced courtesy of Cell Signaling Technology, Inc. (www.cellsignal.com) Chartier et al PeerJ 2013, 1:e126.\n(§2) FIG. 4 illustrates the studies carried out for compounds 67 and 69. Compounds 67 and 69 (FIG. 4B) were evaluated at the International Center For Kinase Profiling (ICKP, Dundee, Scotland) toward a panel of 13 protein kinases. The results (FIG. 4A) were expressed as the mean percentage of residual activity at 1 μM concentration (duplicate assays). Small disks: ≥90%, larger disk: 59%, for both compounds. The tree was generated using the Kinome Render software, and the illustration reproduced courtesy of Cell Signaling Technology, Inc. (www.cellsignal.com) Chartier et al PeerJ 2013, 1:e126.\n(§3) Results are expressed as the mean percentage of residual activity at 10 μM (Table 3) or 1 μM (Table 4). They are illustrated on FIGS. 3 and 4.\n(§4) Studies were undertaken to identify the possible biological target(s) of compound 69. The activation in neurons of PK such as PKCγ, ERK or p38 MAPK can contribute to pain hypersensitivity. Therefore, it was decided to screen compound 69 toward a panel of 50 PKs that provide a representative sampling of the human kinome (FIG. 3, Table 3) (Biochem. J. 2007, 408, 297-315). In this panel, p38α MAPK was identified as the privileged target, with 19% of kinase residual activity at 10 μM compound concentration.\n(§5) The selectivity of compound 69 was evaluated at 1 μM toward another panel containing all four p38 MAPK isoforms, ERK1, ERK2 as well as other protein kinases close to p38α MAPK in the kinome phylogenetic tree (FIG. 4, Table 4). […] Its IC50 toward p38α MAPK was determined, showing a value in the micromolar range (IC50=3.0±0.1 μM)."}, "p38a MAPK": {"biological_target": "p38a MAPK (Homo sapiens (Human), UniProt Q16539)", "sequence (Q16539 whole entry)": "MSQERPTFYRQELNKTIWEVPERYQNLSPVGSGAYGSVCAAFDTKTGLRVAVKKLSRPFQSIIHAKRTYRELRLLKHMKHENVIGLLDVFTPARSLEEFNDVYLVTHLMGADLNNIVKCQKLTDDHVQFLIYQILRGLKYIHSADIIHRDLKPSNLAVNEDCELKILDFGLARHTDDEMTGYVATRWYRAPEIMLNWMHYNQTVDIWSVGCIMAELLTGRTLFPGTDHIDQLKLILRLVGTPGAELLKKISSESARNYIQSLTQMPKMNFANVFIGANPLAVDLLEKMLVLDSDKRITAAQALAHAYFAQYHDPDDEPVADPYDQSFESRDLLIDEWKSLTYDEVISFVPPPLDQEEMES", "format": "biochemical", "settings": "duplicate assays, read-out: mean % residual activity", "description": "as §1, §2, §3, §4, §5"}, "CAMK1": {"biological_target": "CAMK1 (Homo sapiens (Human), UniProt Q14012)", "format": "biochemical", "settings": "duplicate assays, read-out: mean % residual activity", "description": "as §1, §3, §4"}, "CK1δ": {"biological_target": "CK1δ (Homo sapiens (Human), UniProt P48730)", "format": "biochemical", "settings": "duplicate assays, read-out: mean % residual activity", "description": "as §1, §3, §4"}, "EF2K": {"biological_target": "EF2K (Homo sapiens (Human), UniProt O00418)", "format": "biochemical", "settings": "duplicate assays, read-out: mean % residual activity", "description": "as §1, §3, §4"}, "JAK3": {"biological_target": "JAK3 (Homo sapiens (Human), UniProt P52333)", "sequence (P52333 whole entry)": "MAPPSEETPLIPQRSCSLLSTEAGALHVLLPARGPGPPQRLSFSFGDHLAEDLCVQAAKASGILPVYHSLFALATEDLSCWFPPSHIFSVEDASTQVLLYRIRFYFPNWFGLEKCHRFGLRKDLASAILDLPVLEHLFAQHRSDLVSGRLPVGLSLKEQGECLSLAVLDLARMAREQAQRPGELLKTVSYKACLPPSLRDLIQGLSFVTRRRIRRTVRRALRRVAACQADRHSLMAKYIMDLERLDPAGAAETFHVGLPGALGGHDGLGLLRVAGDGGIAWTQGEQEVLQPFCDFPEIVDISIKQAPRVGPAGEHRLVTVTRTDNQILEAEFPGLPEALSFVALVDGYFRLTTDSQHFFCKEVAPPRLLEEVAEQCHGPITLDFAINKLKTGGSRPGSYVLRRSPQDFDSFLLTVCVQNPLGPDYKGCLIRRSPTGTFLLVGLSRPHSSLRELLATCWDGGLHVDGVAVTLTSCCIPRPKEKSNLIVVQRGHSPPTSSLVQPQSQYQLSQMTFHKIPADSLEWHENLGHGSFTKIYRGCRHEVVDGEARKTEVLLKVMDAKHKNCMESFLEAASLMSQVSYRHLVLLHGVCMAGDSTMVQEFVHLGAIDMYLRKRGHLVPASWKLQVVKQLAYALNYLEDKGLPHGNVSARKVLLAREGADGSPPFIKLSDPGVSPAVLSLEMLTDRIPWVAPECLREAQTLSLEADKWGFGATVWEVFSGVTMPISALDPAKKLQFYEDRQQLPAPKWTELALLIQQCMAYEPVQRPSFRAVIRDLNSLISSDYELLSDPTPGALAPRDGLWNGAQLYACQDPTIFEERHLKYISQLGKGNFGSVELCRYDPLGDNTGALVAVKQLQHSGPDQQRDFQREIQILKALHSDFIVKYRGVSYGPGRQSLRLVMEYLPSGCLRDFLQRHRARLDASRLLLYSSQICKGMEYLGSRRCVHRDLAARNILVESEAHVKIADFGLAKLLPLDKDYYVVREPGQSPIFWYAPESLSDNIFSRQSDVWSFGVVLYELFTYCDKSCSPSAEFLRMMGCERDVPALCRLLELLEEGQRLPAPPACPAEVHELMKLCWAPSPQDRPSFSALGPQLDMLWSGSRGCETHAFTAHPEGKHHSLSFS", "format": "biochemical", "settings": "duplicate assays, read-out: mean % residual activity", "description": "as §1, §3, §4"}, "MKK1": {"biological_target": "MKK1 (Homo sapiens (Human), UniProt Q02750)", "format": "biochemical", "settings": "duplicate assays, read-out: mean % residual activity", "description": "as §1, §3, §4"}, "MLK3": {"biological_target": "MLK3 (Homo sapiens (Human), UniProt Q16584)", "format": "biochemical", "settings": "duplicate assays, read-out: mean % residual activity", "description": "as §1, §3, §4"}, "MSK1": {"biological_target": "MSK1 (Homo sapiens (Human), UniProt O75582)", "sequence (O75582 whole entry)": "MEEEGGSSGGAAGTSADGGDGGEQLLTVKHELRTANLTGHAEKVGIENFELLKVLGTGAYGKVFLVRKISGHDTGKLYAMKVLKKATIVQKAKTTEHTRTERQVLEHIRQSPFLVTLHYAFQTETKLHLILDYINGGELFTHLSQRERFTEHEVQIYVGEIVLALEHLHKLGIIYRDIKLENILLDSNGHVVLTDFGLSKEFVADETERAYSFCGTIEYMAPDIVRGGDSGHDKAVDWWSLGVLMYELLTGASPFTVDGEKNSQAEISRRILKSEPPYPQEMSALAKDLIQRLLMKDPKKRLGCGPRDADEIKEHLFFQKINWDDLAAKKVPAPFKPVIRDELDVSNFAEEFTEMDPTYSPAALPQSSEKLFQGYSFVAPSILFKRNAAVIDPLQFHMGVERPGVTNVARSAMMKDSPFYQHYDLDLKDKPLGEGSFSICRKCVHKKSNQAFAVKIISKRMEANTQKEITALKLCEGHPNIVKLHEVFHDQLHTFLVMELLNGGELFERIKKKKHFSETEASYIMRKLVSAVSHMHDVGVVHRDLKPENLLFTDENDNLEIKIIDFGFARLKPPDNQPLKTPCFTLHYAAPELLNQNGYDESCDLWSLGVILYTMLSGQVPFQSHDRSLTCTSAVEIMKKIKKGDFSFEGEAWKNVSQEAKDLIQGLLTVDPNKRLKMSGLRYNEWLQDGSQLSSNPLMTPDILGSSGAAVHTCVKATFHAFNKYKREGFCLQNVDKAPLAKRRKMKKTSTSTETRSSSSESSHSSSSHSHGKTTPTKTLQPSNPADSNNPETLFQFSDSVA", "format": "biochemical", "settings": "duplicate assays, read-out: mean % residual activity", "description": "as §1, §3, §4"}, "PDK1": {"biological_target": "PDK1 (Homo sapiens (Human), UniProt O15530)", "format": "biochemical", "settings": "duplicate assays, read-out: mean % residual activity", "description": "as §1, §3, §4"}, "PIM1": {"biological_target": "PIM1 (Homo sapiens (Human), UniProt P11309)", "sequence (P11309 whole entry)": "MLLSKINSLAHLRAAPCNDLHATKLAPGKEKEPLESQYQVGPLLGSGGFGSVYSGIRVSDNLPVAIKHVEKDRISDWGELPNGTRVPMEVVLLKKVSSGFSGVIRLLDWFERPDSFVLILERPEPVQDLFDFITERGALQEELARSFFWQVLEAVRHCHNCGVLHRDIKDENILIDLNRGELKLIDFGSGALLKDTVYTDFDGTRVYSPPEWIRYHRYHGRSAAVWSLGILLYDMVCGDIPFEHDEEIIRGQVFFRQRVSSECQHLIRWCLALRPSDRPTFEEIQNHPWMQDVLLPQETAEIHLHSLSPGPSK", "format": "biochemical", "settings": "duplicate assays, read-out: mean % residual activity", "description": "as §1, §3, §4"}, "PKA": {"biological_target": "PKA (Homo sapiens (Human), UniProt P17612)", "format": "biochemical", "settings": "duplicate assays, read-out: mean % residual activity", "description": "as §1, §3, §4"}, "SYK": {"biological_target": "SYK (Homo sapiens (Human), UniProt P43405)", "format": "biochemical", "settings": "duplicate assays, read-out: mean % residual activity", "description": "as §1, §3, §4"}, "Src": {"biological_target": "Src (Homo sapiens (Human), UniProt P12931)", "sequence (P12931 whole entry, looked up)": "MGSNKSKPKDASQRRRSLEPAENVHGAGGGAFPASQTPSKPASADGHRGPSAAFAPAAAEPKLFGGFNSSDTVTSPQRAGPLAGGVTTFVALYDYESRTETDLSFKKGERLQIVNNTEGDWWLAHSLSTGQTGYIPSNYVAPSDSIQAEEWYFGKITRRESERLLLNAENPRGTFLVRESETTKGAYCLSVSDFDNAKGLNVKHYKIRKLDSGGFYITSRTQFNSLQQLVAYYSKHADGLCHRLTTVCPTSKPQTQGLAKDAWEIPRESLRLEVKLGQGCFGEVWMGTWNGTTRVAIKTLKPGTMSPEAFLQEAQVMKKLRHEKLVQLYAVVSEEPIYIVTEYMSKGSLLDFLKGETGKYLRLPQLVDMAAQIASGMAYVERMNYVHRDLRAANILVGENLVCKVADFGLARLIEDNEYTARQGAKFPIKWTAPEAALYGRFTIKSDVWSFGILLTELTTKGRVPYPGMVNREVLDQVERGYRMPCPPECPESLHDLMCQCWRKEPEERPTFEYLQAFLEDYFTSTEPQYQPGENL", "format": "biochemical", "settings": "duplicate assays, read-out: mean % residual activity", "description": "as §1, §3, §4"}, "AMPK (hum)": {"system": "AMPK (hum)", "format": "biochemical, human", "settings": "10 μM, duplicate assays", "description": "as §1, §3, §4"}, "CK2": {"system": "CK2", "format": "biochemical, human", "settings": "10 μM, duplicate assays", "description": "as §1, §3, §4"}, "ROCK 2": {"system": "ROCK 2", "format": "biochemical, human", "settings": "10 μM, duplicate assays", "description": "as §1, §3, §4"}, "CDK2-Cyclin A": {"biological_target": "CDK2-Cyclin A (Homo sapiens (Human), UniProt P24941)", "format": "biochemical", "settings": "duplicate assays, read-out: mean % residual activity", "description": "as §2, §3, §5"}, "CDK5": {"biological_target": "CDK5 (Homo sapiens (Human), UniProt Q00535)", "format": "biochemical", "settings": "duplicate assays, read-out: mean % residual activity", "description": "as §2, §3, §5"}, "ERK1": {"biological_target": "ERK1 (Homo sapiens (Human), UniProt P27361)", "format": "biochemical", "settings": "duplicate assays, read-out: mean % residual activity", "description": "as §2, §3, §5"}, "ERK2": {"biological_target": "ERK2 (Homo sapiens (Human), UniProt P28482)", "sequence (P28482 whole entry)": "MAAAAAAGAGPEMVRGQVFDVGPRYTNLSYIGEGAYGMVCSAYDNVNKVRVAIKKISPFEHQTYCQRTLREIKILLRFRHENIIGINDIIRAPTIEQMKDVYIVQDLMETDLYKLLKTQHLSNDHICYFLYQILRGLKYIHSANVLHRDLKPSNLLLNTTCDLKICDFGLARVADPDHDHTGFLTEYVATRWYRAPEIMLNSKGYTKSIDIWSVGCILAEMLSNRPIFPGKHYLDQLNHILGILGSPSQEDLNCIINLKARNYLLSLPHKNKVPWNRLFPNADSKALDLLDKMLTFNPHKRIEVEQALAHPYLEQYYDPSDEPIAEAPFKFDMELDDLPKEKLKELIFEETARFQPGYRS", "format": "biochemical", "settings": "duplicate assays, read-out: mean % residual activity", "description": "as §2, §3, §5"}, "ERK5": {"biological_target": "ERK5 (Homo sapiens (Human), UniProt Q13164)", "format": "biochemical", "settings": "duplicate assays, read-out: mean % residual activity", "description": "as §2, §3, §5"}, "ERK8": {"biological_target": "ERK8 (Homo sapiens (Human), UniProt Q8TD08)", "format": "biochemical", "settings": "duplicate assays, read-out: mean % residual activity", "description": "as §2, §3, §5"}, "JNK2": {"biological_target": "JNK2 (Homo sapiens (Human), UniProt P45984)", "sequence (P45984 whole entry)": "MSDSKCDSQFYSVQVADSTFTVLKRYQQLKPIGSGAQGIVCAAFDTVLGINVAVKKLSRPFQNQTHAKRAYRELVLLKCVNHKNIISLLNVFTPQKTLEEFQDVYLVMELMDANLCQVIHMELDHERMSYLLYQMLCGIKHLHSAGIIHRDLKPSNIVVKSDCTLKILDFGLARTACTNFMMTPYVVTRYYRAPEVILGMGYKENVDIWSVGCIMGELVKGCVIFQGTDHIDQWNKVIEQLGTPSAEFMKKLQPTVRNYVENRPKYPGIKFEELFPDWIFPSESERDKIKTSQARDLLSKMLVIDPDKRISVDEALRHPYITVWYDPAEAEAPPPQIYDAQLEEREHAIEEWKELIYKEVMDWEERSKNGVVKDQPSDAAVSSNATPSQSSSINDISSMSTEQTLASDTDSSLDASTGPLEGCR", "format": "biochemical", "settings": "duplicate assays, read-out: mean % residual activity", "description": "as §2, §3, §5"}, "JNK3": {"biological_target": "JNK3 (Homo sapiens (Human), UniProt P53779)", "format": "biochemical", "settings": "duplicate assays, read-out: mean % residual activity", "description": "as §2, §3, §5"}, "p38b MAPK": {"biological_target": "p38b MAPK (Homo sapiens (Human), UniProt Q15759)", "sequence (Q15759 whole entry)": "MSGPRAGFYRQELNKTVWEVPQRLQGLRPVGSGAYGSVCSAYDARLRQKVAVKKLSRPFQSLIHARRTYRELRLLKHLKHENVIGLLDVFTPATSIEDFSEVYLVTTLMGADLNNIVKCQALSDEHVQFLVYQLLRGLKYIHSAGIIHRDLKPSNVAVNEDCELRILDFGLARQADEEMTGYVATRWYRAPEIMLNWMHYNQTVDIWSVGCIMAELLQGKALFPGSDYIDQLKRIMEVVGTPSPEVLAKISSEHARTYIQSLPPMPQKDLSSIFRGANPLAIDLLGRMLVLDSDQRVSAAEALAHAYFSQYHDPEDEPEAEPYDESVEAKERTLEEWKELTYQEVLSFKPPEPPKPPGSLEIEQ", "format": "biochemical", "settings": "duplicate assays, read-out: mean % residual activity", "description": "as §2, §3, §5"}, "p38d MAPK": {"biological_target": "p38d MAPK (Homo sapiens (Human), UniProt O15264)", "format": "biochemical", "settings": "duplicate assays, read-out: mean % residual activity", "description": "as §2, §3, §5"}, "p38g MAPK": {"biological_target": "p38g MAPK (Homo sapiens (Human), UniProt P53778)", "format": "biochemical", "settings": "duplicate assays, read-out: mean % residual activity", "description": "as §2, §3, §5"}},
  "data": [
    {"smiles": "O=c1[nH]cc(Nc2ccccc2)cc1-c1ccccc1Br", "note": "[Compound 69, 3-(2-Bromophenyl)-5-(phenylamino)pyridin-2(1H)-one]", "values": [
      {"measurement": "remaining activity at 1 µM", "setting": "JNK1; 1 μM", "result": 115, "unit": "%"},
      {"measurement": "remaining activity at 10 µM", "setting": "JNK1; 10 μM", "result": 102, "unit": "%"},
      {"measurement": "remaining activity at 1 µM", "setting": "p38a MAPK; 1 μM", "result": 59, "unit": "%"},
      {"measurement": "remaining activity at 10 µM", "setting": "p38a MAPK; 10 μM", "result": 19, "unit": "%"},
      {"measurement": "remaining activity at 10 µM", "setting": "CAMK1", "result": 96, "unit": "%"},
      {"measurement": "remaining activity at 10 µM", "setting": "CK1δ", "result": 98, "unit": "%"},
      {"measurement": "remaining activity at 10 µM", "setting": "EF2K", "result": 116, "unit": "%"},
      {"measurement": "remaining activity at 10 µM", "setting": "JAK3", "result": 107, "unit": "%"},
      {"measurement": "remaining activity at 10 µM", "setting": "MKK1", "result": 112, "unit": "%"},
      {"measurement": "remaining activity at 10 µM", "setting": "MLK3", "result": 109, "unit": "%"},
      {"measurement": "remaining activity at 10 µM", "setting": "MSK1", "result": 100, "unit": "%"},
      {"measurement": "remaining activity at 10 µM", "setting": "PDK1", "result": 103, "unit": "%"},
      {"measurement": "remaining activity at 10 µM", "setting": "PIM1", "result": 95, "unit": "%"},
      {"measurement": "remaining activity at 10 µM", "setting": "PKA", "result": 94, "unit": "%"},
      {"measurement": "remaining activity at 10 µM", "setting": "SYK", "result": 79, "unit": "%"},
      {"measurement": "remaining activity at 10 µM", "setting": "Src", "result": 93, "unit": "%"},
      {"measurement": "mean % residual activity", "setting": "AMPK (hum)", "result": 95, "unit": "%"},
      {"measurement": "mean % residual activity", "setting": "CK2", "result": 94, "unit": "%"},
      {"measurement": "mean % residual activity", "setting": "ROCK 2", "result": 105, "unit": "%"},
      {"measurement": "remaining activity at 1 µM", "setting": "CDK2-Cyclin A", "result": 119, "unit": "%"},
      {"measurement": "remaining activity at 1 µM", "setting": "CDK5", "result": 103, "unit": "%"},
      {"measurement": "remaining activity at 1 µM", "setting": "ERK1", "result": 120, "unit": "%"},
      {"measurement": "remaining activity at 1 µM", "setting": "ERK2", "result": 109, "unit": "%"},
      {"measurement": "remaining activity at 1 µM", "setting": "ERK5", "result": 101, "unit": "%"},
      {"measurement": "remaining activity at 1 µM", "setting": "ERK8", "result": 144, "unit": "%"},
      {"measurement": "remaining activity at 1 µM", "setting": "JNK2", "result": 103, "unit": "%"},
      {"measurement": "remaining activity at 1 µM", "setting": "JNK3", "result": 115, "unit": "%"},
      {"measurement": "remaining activity at 1 µM", "setting": "p38b MAPK", "result": 116, "unit": "%"},
      {"measurement": "remaining activity at 1 µM", "setting": "p38d MAPK", "result": 112, "unit": "%"},
      {"measurement": "remaining activity at 1 µM", "setting": "p38g MAPK", "result": 103, "unit": "%"}
    ]}
  ]
}
